According to patent US6605635B1, “N-substituted benzyl or phenyl aromatic sulfamides compounds and the use thereof” (Shanghai Institute of Materia Medica Chinese Academy of …, priority 1999, dated 2003):

What was measured:
[1] = system: rat aconitine-induced arrhythmia; format: in vivo, rats; settings: hydrochloride salts; for Prophylactic inde: ratio LD50:ED50, rats; for Therapeutic ind: ratio LD50:ED, rats
[2] = system: ouabain induced guinea pig arrhythmia; assay: ouabain induced guinea pig arrhythmia model; format: in vivo
[3] = system: beiwutine induced rat arrhythmia; assay: beiwutine induced rat arrhythmia model; format: in vivo
[4] = system: acute myocardial ischemia induced arrhythmia; assay: acute myocardial ischemia induced arrhythmia model (coronary artery ligation) in anesthetized rats; format: in vivo
From the text: 1. An acute myocardial ischemia induced arrhythmia model was obtained by conducting chest opening to expose the heart and […] of the anterior descending branch of the coronary artery in anesthetized rats (“Methods in Pharmacological Experiments”, Second Edition, p. 1022, People's Medical Publishing House, Beijing, 1991).

arrhythmia patients = settings: cited from earlier work

| Molecule | Prophylactic inde [1] | Therapeutic ind [1] | other results |
| --- | --- | --- | --- |
| N-[3,5-bis(1-Pyrrolidinomethyl)-4-hydroxy]phenyl-4-chlorobenzenesulfonamide [Compound B-86810] | 5.3 |  |  |
| N-[3,5-bis(1-Pyrrolidinomethyl)-4-hydroxy]phenyl-N-methyl-4-acetamidobenzenesulfonamide [Compound B-87827] | 3.0 | 2 |  |
| O=S(=O)(Nc1cc(CN2CCCCC2)c(O)c(CN2CCCCC2)c1)c1cccc2ccccc12 [Compound B-87836, N-[3,5-bis(1-Piperidinomethyl)-4-hydroxy]phenyl-1-naphthalenesulfonamide] | 33.5 | 9.7 |  |
| N-[3,5-bis(1 -Pyrrolidinomethyl)-4-hydroxyl]benzyl-4-chlorobenzenesulfonamide [Compound B-87829] | 55 | 8.6 |  |
| N-[3,5-bis(1-Pyrrolidinomethyl)-4-hydroxy]phenyl-N-ethyl-4-toluenesulfonamide [Compound B-86809] | 1.1 | 4.0 |  |
| Oc1c(CN2CCCC2)cc(Nc2ncnc3ccccc23)cc1CN1CCCC1 [changrolin] |  |  | amount of ouabain used for inducing ventrical premature beats, ventricular tachycardia and ventricular fibrillation [2]: significantly increase; ED50 [3]: 3 mg/kg; inhibition of the incidence of ventrical premature beats [4]: 50%; ventricular premature beats (arrhythmia patients; 2-3 days after oral administration, patients suffering from arrhythmia): disappear; ventricular premature beats and ventricular tachycardia (arrhythmia patients; i.v. injection or instillation, patients): significant reduction or even disappearence; skin side effect (arrhythmia patients; oral administration for over one month, patients, retrogresses after ceasing administration): reversible pigmentation on the skin |
